No end group written: not given here.
Columns and labels:
Assay type in all cases: cell-based
[1] = tested on: ERK1/2; experiment: Western immunoblot for phosphorylated ERK1/2 in human chondrocytes; details: at 15 min; inhibitors added before peptide
Protocol: To detect activation of MAP kinases (ERK1/2, p38 MAPK, and JNK1/2), first-passaged chondrocytes plated onto 10-cm culture dishes were incubated with CB12-II (SP), USP, TNF-α, native human type II collagen, human fibronectin, and antibodies to α2β1 and α5β1 for 5-60 min. In some experiments, chondrocytes were precultured with U0126 (inhibitor of phosphorylation of MEK1/2, up-stream kinase molecule of ERK1/2) at 1 μM for 1 h, SB203580 (inhibitor of phosphorylation of p38 MAPK) at 1 μM for 1 h, Herbimycin A (tyrosine kinase inhibitor) at 1 μg/ml for overnight, Wortmannin (PI3 kinase inhibitor) at 100 nM for 1 h, and Cytochalasin D (focal adhesion inhibitor) at 3 μM for 30 or 60 min before adding peptides.
After a variable but designated incubation time, chondrocytes were washed twice with ice cold PBS and lysed in RIPA buffer (10 mM Tris/HCl, pH 7.4, 0.1% SDS, 1% NP-40, 0.1% sodium deoxycholate, 150 mM NaCl, 1 mM EDTA) containing freshly added proteinase and phosphatase inhibitors (1 mM PMSF, 10 μg/ml leupeptin, 1 μg/ml aprotinin, 1 mM Na3VO4, 1 mM NaF). Cell lysate was centrifuged and supernatant was collected. Protein concentration was determined using Bradford's method. Equal amounts of protein were separated on 10% SDS-polyacrylamide gels under reducing conditions and were electrotransferred to a nitrocellulose membrane (Bio-Rad). To block nonspecific binding, the membranes were incubated in PBS containing 5% non-fat milk overnight at 4° C. The membranes were then probed with rabbit antibodies against phosphorylated ERK1/2, p38, and JNK1/2 (New England BioLabs). Antibodies were diluted 1:1000 in PBS containing 0.5% non-fat milk and reacted with the membrane for 1 h at room temperature. Blots were washed with PBS containing 0.1% Tween-20 three times, and incubated for 1 h at room temperature with horseradish peroxidase (HRP)-conjugated goat anti-rabbit IgG (New England BioLabs) diluted 1:2000 with PBS-0.1% Tween 20 for ECL system (Amersham). Then, the membranes were washed with PBS-Tween, and the membranes were detected with the addition of a 1:1 dilution of the ECL detection reagents (Amersham) 1 and 2 for 1 min. The solution was removed, and the membranes were wrapped in plastic wrap and exposed to film for various amounts of time.
First-passaged confluent human chondrocytes were treated with CB12-II (SP) (10 μM), USP (10 μM), anti-α2β1and α5β1 antibodies, anti-integrin α2β1 blocking antibody, and IL-1β or TNF-α. Cell lysates were immunoblotted using antibody that detects phosphorylated p-ERK1I/2 or p-MEK. In some experiments, U0126 at 10 μM, a specific inhibitor of an upstream molecule, MEK1/2, that activates ERK1/2, and SB203580 at 10 μM, that inhibits p38 MAPK activity, were added to the culture 1 h before peptides, antibodies, and cytokines. Herbimycin A, cytochalasin D, and wortmannin were also used as inhibitors.

[2] = tested on: bovine articular cartilage explant; experiment: Collagenase-cleaved type II collagen (COL2-3/4C) in bovine articular cartilage explant culture; details: 1 and 10 μM, time- and dose-dependent
Protocol: (§1) The cartilages were prepared as previously described (Dahlberg, L. et al. (2000) supra. In brief, the cartilage samples were washed three times with basal culture medium containing Dulbecco's modified Eagle's medium (DMEM; Gibco BRL, Life Technologies, Grand Island, N.Y.) with 20 mM HEAPS buffer (pH 7.4) (Gibco BRL), 45 mM NaHCO3, 100 units/ml penicillin, 100 μg/ml streptomycin and 150 μg/ml gentamycin sulphate (Medium A). Full-depth cartilage slices from a single area, around 20 mm×20 mm were cut vertical to the articular surface and then into cubes of approximately 2 mm×2 mm (5-7 cubes were randomly obtained and wet weights about 50-70 mg/well determined).
(§2) The cartilage was assigned to 48 well plate (ca 40 mg/well) and kept in Medium A supplemented with 50 μg/ml ascorbic acid, 0.1 mg/bovine serum albumin, 50 μg/ml insulin, 5.0 μg/ml and 5.0 μg/ml sodium DMEM alone at 37° C. in 95% air/5% CO2. The cartilage was precultured for 2 days and medium was changed at day 0. Thereafter medium (as described in pellet cultures) was replaced every four days. Various CNBr fragments and/or synthetic peptides were freshly added from day 0 at each medium change. Thereafter, cartilage explants and conditioned media were harvested and stored at −20° C.
(§3) The cell pellets and cartilage explant cultured for various times were digested for the extraction of collagenase-generated neoepitope COL2-3/4Cshort (Billinghurst, R. C. et al., (1997) supra) and denatured type II collagen epitope COL2-3/4m and total type II collagen (Hollander, A. P. et al. (1994a) supra), as previously described: Briefly, the harvested pellets were incubated overnight with 1.0 mg/ml α-chymotrypsin at 37° C. to cleave and solubilize denatured collagen leaving the above neoepitope and epitope intact. After inhibition of α-chymotrypsin activity with N-tosyl-L-phenelalanine-chloromethyl ketone (Sigma), the samples were centrifuged and the supernatants were removed and boiled for 10 min. The COL2-3/4Cshort epitope (hereafter referred to as COL2-3/4Cshort) generated by cleavage of type II collagen by collagenase (Billinghurst, R. C. et al. (1997) supra) and intrachain epitope (COL2-3/4m) exposed in denatured type II collagen (Hollander, A. P. et al. (1994a) supra) were measured in α-chymotrypsin extracts by immunoassay. The COL2-3/4Cshort epitope is detected in an ELISA assay using a rabbit antibody to the carboxyterminal cleavage neoepitope on the TCA piece generated by primary collagenase cleavage of type II collagen. The release of the COL2-3/4C epitope into media was also measured by immunoassay. Total contents in tissue/cells and media was recorded for COL2-3/^4Cshort epitope. The COL2-3/4m epitope was recorded in cells and tissue where it was concentrated. The remaining residues of pellets and explants were digested overnight with 1.0 mg/ml proteinase K at 56° C. to extract the remaining intact type II collagen and then boiled for 10 min to denature the enzyme. Total type II collagen content in the pellets and explant was determined from the collective amount of COL2-3/4m in both the α-chymotrypsin and proteinase K digests.

[3] = tested on: bovine articular cartilage explant; experiment: Proteoglycan (GAG) content and release in bovine explant culture; details: subpeptides at 1 and 10 μM
Protocol: The cartilages were prepared as previously described (Dahlberg, L. et al. (2000) supra. In brief, the cartilage samples were washed three times with basal culture medium containing Dulbecco's modified Eagle's medium (DMEM; Gibco BRL, Life Technologies, Grand Island, N.Y.) with 20 mM HEAPS buffer (pH 7.4) (Gibco BRL), 45 mM NaHCO3, 100 units/ml penicillin, 100 μg/ml streptomycin and 150 μg/ml gentamycin sulphate (Medium A). Full-depth cartilage slices from a single area, around 20 mm×20 mm were cut vertical to the articular surface and then into cubes of approximately 2 mm×2 mm (5-7 cubes were randomly obtained and wet weights about 50-70 mg/well determined). The cartilage was assigned to 48 well plate (ca 40 mg/well) and kept in Medium A supplemented with 50 μg/ml ascorbic acid, 0.1 mg/bovine serum albumin, 50 μg/ml insulin, 5.0 μg/ml and 5.0 μg/ml sodium DMEM alone at 37° C. in 95% air/5% CO2. The cartilage was precultured for 2 days and medium was changed at day 0. Thereafter medium (as described in pellet cultures) was replaced every four days. Various CNBr fragments and/or synthetic peptides were freshly added from day 0 at each medium change. Thereafter, cartilage explants and conditioned media were harvested and stored at −20° C. In order to show the specificity of the peptide fragments of one embodiment on degradation of type II collagen as compared with proteoglycan, primarily aggrecan, sulphated glycosaminoglycan (GAG) content was determined in both the α-chymotrypsin and proteinase K digests for total proteoglycan (predominantly aggrecan) content in cell pellets, cartilage explants and also in conditioned media. Measurement of release of proteoglycan into media was tested using dimethylene blue dye binding as previously described (Dahlberg, L. et al. (2000) supra).

[4] = tested on: normal human adult articular cartilage explants; experiment: Type II collagen cleavage by collagenase (COL2-3/4C) in human articular cartilage explant culture; details: by day 16
Protocol: Human femoral chondylar cartilages were obtained at autopsy within 18 hours of death from adult persons with no known history of arthritis and no macroscopic signs of articular degeneration. None of the persons had diabetes or had received chemotherapy prior to autopsy. Adult bovine articular cartilage was obtained from adults/bovine steers and cows from metacarpalphalangeal joints obtained at the abbatoir immediately after slaughter. All cartilage specimens were removed immediately to the laboratory under sterile conditions.
as §1, §2, §3

[5] = tested on: MMP-1; experiment: ELISA for MMP-1 in conditioned medium of human chondrocytes; details: 48 hours; CB12-II 50 μM, TNF-α 50 ng/ml
Protocol: (§4) First-passaged normal human chondrocytes isolated by the method described above and cultured at high density (2×10^5 cells/cm^2) were trypsinized and resuspended in Medium A containing 1% FCS at a density of 10^6 cells/ml. Then, 200 μl of the cell suspension was each plated onto round-bottomed 96-well culture plate. On the next day after plating, CB12-II at 50 μM, USP at 50 μM, and TNF-α at 50 ng/ml were added to the culture media, and the culture was maintained for 24-48 hours. Conditioned media were collected and subjected to ELISA assay. The ELISA kits (BIOTRAK) for MMP-1 and MMP-13 were purchased from Amersham Pharmacia Biotech (Piscataway, N.J.). Measurement range was 6.25-100 ng/ml for MMP-1 and 0.094-3 ng/ml for MMP-13. Sensitivity for the assay was 1.7 ng/ml for MMP-1 and 0.7 ng/ml for MMP-13.
(§5) Protein levels of MMP-1 and MMP-13 were also tested by incubating isolated human chondrocytes for 48 hours in high density culture (10^6 cells/ml) with CB12-II, negative control peptide USP, or cytokine TNF-α, as discussed above. MMP-1 and MMP-13 secretion into medium from the cells was measured using ELISA (see FIGS. 9A and 9B).

[6] = tested on: MMP-13; experiment: ELISA for MMP-13 in conditioned medium of human chondrocytes; details: 48 hours; CB12-II 50 μM, TNF-α 50 ng/ml
Protocol: as §4, §5

Molecule | inhibition of phosphorylation of ERK1/2 induced by CB12-II [1] | effect of removal of hydroxylation at a single proline residue on activity of CB12-II (SP) [4] | other results
C=C1[C@@H](C)[C@H]2[C@H](Cc3ccccc3)NC(=O)[C@]23[C@H](OC(C)=O)/C=C/[C@@](C)(O)C(=O)[C@@H](C)C/C=C/[C@H]3[C@@H]1O [Cytochalasin D, reference compound] | inhibited |  | 
CO[C@H]1[C@@H](OC)C[C@H](C)[C@@H](OC)C2=CC(=O)C=C(NC(=O)/C(C)=C/C=C\[C@H](OC)[C@@H](OC(N)=O)/C(C)=C/[C@@H]1C)C2=O [Herbimycin A, reference compound] | inhibited |  | 
N#CC(=C(/N)Sc1ccccc1N)/C(C#N)=C(\N)Sc1ccccc1N [Peptide U0126, reference compound] | inhibited |  | 
C[S+]([O-])c1ccc(-c2nc(-c3ccncc3)c(-c3ccc(F)cc3)[nH]2)cc1 (stereo not shown) [SB203580, reference compound] | not |  | 
GEAGAPGVKGESGSPGQNGSPGPM (not fully specified) [CB12-IV, subpeptide of CB12; used as non-specific / negative control peptide (USP)] |  |  | induction of total collagenase cleavage of type II collagen by CB12 subpeptides [2]: less activity; proteoglycan breakdown [3]: no significant effect
GERGPP*GPQGARGFP*GTP*GLPGVK [SP21] |  | no effect on activity | 
GERGPP*GPQGARGFP*GTPGLP*GVK [SP18] |  | reduced potency | 
GERGPP*GPQGARGFPGTP*GLP*GVK [SP15] |  | reduced potency | 
GERGPPGPQGARGFP*GTP*GLP*GVK [SP6] |  | no effect on activity | 
GLPGVKGHRGYPGLDGAKGEAGAPG [CB12-III, subpeptide of the CB12 peptide of type II collagen] |  |  | induction of total collagenase cleavage of type II collagen by CB12 subpeptides [2]: less activity; proteoglycan breakdown [3]: no significant effect
GPRGPPGPPGKPGDDGEAGKPGKSGERGPPG [CB12-I, subpeptide of the CB12 peptide of type II collagen] |  |  | induction of total collagenase cleavage of type II collagen by CB12 subpeptides [2]: less activity; proteoglycan breakdown [3]: no significant effect
TNF-α |  |  | MMP-1 secretion into medium versus no peptide and negative control peptide (USP) [5]: significantly higher; MMP-13 secretion into medium versus no peptide and negative control peptide (USP) [6]: significantly higher
